Assay: mn = molality of the nth substance listed, in mol/kg
Conditions: Liquid; for speed of sound: Pulse-echo method

[Na+].[O-][Cl+3]([O-])([O-])[O-] [sodium perchlorate] + CO
Conditions	mass density, 283.15 K [kg/m3]	mass density, 288.15 K [kg/m3]	mass density, 293.15 K [kg/m3]	mass density, 298.15 K [kg/m3]	mass density, 303.15 K [kg/m3]	mass density, 308.15 K [kg/m3]	mass density, 313.15 K [kg/m3]	speed of sound, 298.15 K [m/s]
m1 = 0.06243	805.671	800.986	796.296	791.593	786.871	782.134	777.365	1106.7
m1 = 0.0815	807.203	802.517	797.826	793.122	788.409	783.67	778.903	1107.7
m1 = 0.1008	808.744	804.058	799.365	794.669	789.952	785.213	780.447	1108.9
m1 = 0.1221	810.429	805.746	801.058	796.356	791.635	786.904	782.14	1110.1
m1 = 0.1416	811.984	807.3	802.609	797.903	793.191	788.455	783.694	1111.2
m1 = 0.1625	813.649	808.965	804.274	799.57	794.858	790.121	785.36	1112.4
m1 = 0.2036	816.875	812.189	807.5	802.798	798.077	793.334	788.581	1115.1
m1 = 0.2459	820.175	815.49	810.8	806.099	801.382	796.642	791.885	1117
m1 = 0.2865	823.32	818.628	813.937	809.237	804.52	799.783	795.021	1119
m1 = 0.3276	826.533	821.841	817.143	812.442	807.725	802.987	798.225	1121.3
m1 = 0.3701	829.792	825.099	820.402	815.691	810.974	806.236	801.475	1123.6
m1 = 0.412	832.991	828.296	823.6	818.891	814.168	809.417	804.668	1125.5
